Assay results reported in patent publication US10017475B2, “Anti-vasculature and anti-tubulin combretastatin analogs for treatment of cancer” (XAVIER UNIVERSITY OF LOUISIANA, priority 2014, dated 2018).
pIC50: −log10 of the molar value. Entries after “also recorded” stand apart in the source; their conditions may differ. Like-named read-outs stand apart in the source and are kept apart here.

Tests used:
A549 = assay: Antiproliferative assay (resazurin, 72 h); type: cell-based, human; settings: A549, 72 h incubation, read-out: Growth Inhibition IC50 A549
Protocol: (§1) Cells were seeded in 96-well plates (5×10^3 cells/well) containing 50 μL growth medium for 24 hours. After medium removal, 100 μL fresh medium containing individual analog compound at different concentrations was added to each well and incubated at 37° C. for 72 h. […] After 72 h of incubation, 20 μL of resazurin was added for 2 h before recording fluorescence at 560 nm (excitation) and 590 nm (emission) using a Victor microtiter plate fluorimeter (Perkin-Elmer, USA).

HeLa = assay: Antiproliferative assay (resazurin, 72 h); type: cell-based, human; settings: 72 h incubation, read-out: Growth Inhibition IC50 HeLa
Protocol: as §1

MDA-MB-231 = assay: Antiproliferative assay (resazurin, 72 h); type: cell-based, human; settings: MDA-MB-231, 72 h incubation, read-out: Growth Inhibition IC50 MDA-MB-231
Protocol: as §1

HeLa cells [1] = assay: Immunofluorescence of interphase microtubules; type: cell-based, human; settings: 1 μM, 24 h
Protocol: (§2) MDA-MB-231 and HeLa cells were grown on a Laboratory-Tek chamber slide (VWR International, Radnor, Pa.) and treated with vehicle (DMSO) or 1 μM CA-4 or 4h for 24 hours to 4 days. At the completion of treatment, cells were fixed with 3.7% formaldehyde and permeabilized with 0.1% Triton X-100 in PBS for 4 min. The cells were first incubated for 1 h in a solution of PBS containing 1% BSA and calf serum to block nonspecific antibody binding. The cells were then incubated with the mouse anti-tubulin antibody (1:200) (Life Technologies, Grand Island, N.Y.), washed 3 times in PBS containing 1% BSA and incubated for 2 h at room temperature with secondary goat antimouse antibody Alexa 488 labeled (1:200) for tubulin staining. The chamber slides were examined and photographed using a Nikon ES800 fluorescence microscope with a digital camera.
(§3) To determine the microtubule disrupting effects of the pyridine-linked analogs, compound 4h was selected as a representative compound in a cell-based phenotypic screening. HeLa and MDA-MB-231 cells were used to examine the effect of 4h on the reorganization of microtubules during mitosis. Cells were treated with either 4h or CA-4 for 24 h, and microtubules were visualized by indirect immunofluorescence techniques. An antibody for β-tubulin was used to visualize interphase and mitotic microtubule structures.
(§4) At FIG. 37 the effects of CA-4 and 4h on interphase microtubules are shown. MDA-MB-231 and HeLa cells were treated with vehicle (A, D) or 1 μM compounds (B, C and E, F) as indicated for 24 hours. Cells were then fixed and microtubules visualized by indirect immunofluorescence techniques. Normal interphase microtubules are visible in the control cells of HeLa and MDA-MB-231. The loss of interphase microtubules induced by CA-4 and 4h is shown in respective treatments as labeled.

MDA-MB-231 cells [2] = assay: Immunofluorescence of interphase microtubules; type: cell-based, human; settings: 1 μM, 24 h
Protocol: as §2, §3, §4

HeLa cells [3] = assay: Cytofluorimetric analysis of cell cycle distribution; type: cell-based, human; settings: 1 μM, 24 h
MDA-MB-231 cells [4] = assay: as above; type: cell-based, human; settings: 1 μM, 24 h
Protocol: Cells treated with tested compounds for 24 h were washed once in PBS and resuspended in 1 mL of 70% ice cold ethanol and stored at −20° C. Fixed cells were washed twice in PBS and then treated with 1 mL of 0.1 mg/mL of RNase. A solution at 37° C. for 1 h. DNA was then stained with a PBS solution containing 0.1 mg/mL propidium iodide for 30 min at room temperature in the dark. Cell cycle analysis was determined with Accuri C6 (BD Biosciences, Mountain View, Calif.).
Similar results were obtained when another metastatic cancer cell line, MDA-MB-231 was used to test the effect of these compounds on cell cycle arrest.

[5] = tested on: chick embryo chorioallantoic membrane; assay: Chick embryo chorioallantoic membrane (CAM) anti-angiogenesis assay; type: in vivo; settings: for Angiogenesis score (scale 0-3) versus positive control BV (bFGF+VEGF): collagen onplant with bFGF+VEGF on CAM, four days
Protocol: Fertilized embryos were obtained from Charles River Laboratories and incubated at 37.5° C. for 3 days, removed from their shell using a Dremel tool and placed into a covered weighing boat for 10 further days of incubation. Solidified 30 µL onplants containing 2.1 mg/mL rat tail collagen (BD Biosciences, Bedford, Mass.) and 10 ng/mL bFGF and 30 ng/mL VEGF in the presence or absence of CA-4 and 4s were placed on the embryo chorioallantoic membrane (CAM) over two pieces of nylon mesh approximately 0.5 cm^2. Four collagen onplants were added per egg on at least 3 separate eggs. After four days of incubation, images were taken of each plug on surviving embryos using a mini-Vid camera (LW Scientific; Lawrenceville, Ga.) and quantified in a masked fashion on a scale from 0-3 with 0 representing no angiogenesis and 3 representing extreme angiogenesis. Data from one scorer (confirmed by a second scorer) are presented as the means±standard errors of the mean. Statistical significances were determined by one-way analysis of variance (ANOVA) followed by Dunnett's multiple comparison test (GraphPad Prism, La Jolla, Calif.).
In this test the vascular system of a fertilized chicken embryo is used as a model. […] The anti-angiogenesis activity of 4s and CA-4 were determined by the suppression of angiogenic action of BV (bFGF+VEGF) when the compound was added to a collagen containing BV and placed on the chorioallantoic membrane of […] chick embryos for four days. Angiogenesis was scored by two scorers in a blinded fashion.

bovine brain tubulin = assay: Tubulin polymerization assay; settings: compared to vehicle (DMSO)
Protocol: It is based on the principal that light is scattered by microtubules to an extent that is proportional to the concentration of the microtubule polymer. Compounds that interact with tubulin will alter the polymerization of tubulin, and this can be detected using a spectrophotometer. The absorbance at 340 nm at 37° C. is monitored. The experimental procedure of the assay was performed as described in version 8.2 of the tubulin polymerization assay kit manual. Varying concentrations of compounds were preincubated with 10 μM bovine brain tubulin in glutamate buffer at 30° C. and then cooled to 0° C. After the addition of 0.4 mM GTP, the mixtures were transferred to 0° C. cuvettes in a recording spectrophotometer and warmed to 30° C. Tubulin assembly was followed turbidimetrically at 350 nm.
The reaction was initiated by the addition of tubulin to a final concentration of 3.0 mg/mL

| pIC50 (A549; Homo sapiens, A549, 72 h) | pIC50 (HeLa; Homo sapiens, 72 h) | pIC50 (MDA-MB-231; Homo sapiens, MDA-MB-231, 72 h) | Structure (SMILES) | Effect on interphase microtubule network (HeLa cells [1]) | Effect on interphase microtubule network (MDA-MB-231 cells [2]) | Cell cycle distribution G0/G1 (HeLa cells [3]) [%] | Cell cycle distribution G2/M (HeLa cells [3]) [%] | Cell cycle distribution S (HeLa cells [3]) [%] | Cell cycle distribution G0/G1 (MDA-MB-231 cells [4]) [%] | Cell cycle distribution G2/M (MDA-MB-231 cells [4]) [%] | Cell cycle distribution S (MDA-MB-231 cells [4]) [%] | Effect on new vessel growth ([5]; CAM, 4 days after treatment) | Angiogenesis score (scale 0-3) versus positive control BV (bFGF+VEGF) [5] | Inhibition of tubulin polymerization (bovine brain tubulin; compound at 1 μM) | Inhibition of tubulin polymerization (bovine brain tubulin; compound at 10 μM) | other results |
| --- | --- | --- | --- | --- | --- | --- | --- | --- | --- | --- | --- | --- | --- | --- | --- | --- |
| – | – | – | COc1ccc(/C=C\c2cc(OC)c(OC)c(OC)c2)cc1O [CA-4, Combretastatin A4, reference compound] | very similar loss of the microtubule network | very similar loss of the microtubule network | 37.00 | 44.6 | 16.70 | 27.50 | 57.80 | 11.80 | inhibition of new vessel growth and vessel shrinkage | scored significantly lower than the positive control | 35% | nearly completely blocked tubulin polymerization | pIC50 (A549): 8.42; pIC50 (HeLa): 9.05; pIC50 (MDA-MB-231): 8.55 |
| 7.05 | 8.42 | 8.51 | COc1ccc(-c2cccc(-c3ccc(OC)cc3OC)n2)cc1 [Compound 4h, 2-(2,4-Dimethoxyphenyl)-6-(4-methoxyphenyl)pyridine] | dramatic reduction of the interphase microtubule network | dramatic reduction of the interphase microtubule network | 10.30 | 73.4 | 15.40 | 13.10 | 70.5 | 16.40 | – | – | – | remained ineffective against tubulin polymerization | Inhibition of tubulin polymerization (bovine brain tubulin; compound at 1 μM, 1 µM): failed to inhibit tubulin polymerization; also recorded: slightly stimulating tubulin polymerization |
| 7.36 | 8.85 | 8.34 | COc1ccc(-c2cccc(-c3ccc(OC)c(O)c3)n2)c(OC)c1 [Compound 4s, 5-(6-(2,4-Dimethoxyphenyl)pyridine-2-yl)-2-methoxyphenol] | – | – | 12.10 | 70.6 | 17.10 | 18.60 | 54.1 | 17.10 | inhibition of new vessel growth and vessel shrinkage | scored significantly lower than the positive control | failed to inhibit tubulin polymerization | 57% | Anti-angiogenesis activity compared with CA-4 ([5]; CAM, 4 days after treatment): more effective than CA-4 in suppressing new vessel growth; melting point: 142 to 144 °C |
